Data published in PMC6566410, “Novel Diamide-Based Benzenesulfonamides as Selective Carbonic Anhydrase IX Inhibitors Endowed with Antitumor Activity: Synthesis, Biological Evaluation and In Silico Insights” (International Journal of Molecular Sciences, 2019).

Legend:
Test in all cases: NCI one-dose SRB assay
Format in all cases: cell-based
786-0 = settings: Homo sapiens, 786-0 (Renal Cancer), 1.00E-5 Molar, read-out: Growth Percent
In short: (§1)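 Single-dose screen, 10^−5 M, NCI-60 panel per DTP protocol; growth/viability by SRB colorimetry.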

A498 = settings: Homo sapiens, A498 (Renal Cancer), 1.00E-5 Molar, read-out: Growth Percent
In short: as §1

A549/ATCC = settings: Homo sapiens, A549/ATCC (Non-Small Cell Lung Cancer), 1.00E-5 Molar, read-out: Growth Percent
In short: as §1

ACHN = settings: Homo sapiens, ACHN (Renal Cancer), 1.00E-5 Molar, read-out: Growth Percent
In short: as §1

CAKI-1 = settings: Homo sapiens, CAKI-1 (Renal Cancer), 1.00E-5 Molar, read-out: Growth Percent
In short: as §1

EKVX = settings: Homo sapiens, EKVX (Non-Small Cell Lung Cancer), 1.00E-5 Molar, read-out: Growth Percent
In short: as §1

HCT-116 = settings: Homo sapiens, HCT-116 (Colon Cancer), 1.00E-5 Molar, read-out: Growth Percent
In short: as §1

HL-60(TB) = settings: Homo sapiens, HL-60(TB) (Leukemia), 1.00E-5 Molar, read-out: Growth Percent
In short: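 NCI-60 one-dose protocol: compound at 10^−5 M; growth and viability quantified with SRB dye.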

HT29 = settings: Homo sapiens, HT-29, HT29 (Colon Cancer), 1.00E-5 Molar, read-out: Growth Percent
In short: as §1

IGROV1 = settings: Homo sapiens, IGROV-1, IGROV1 (Ovarian Cancer), 1.00E-5 Molar, read-out: Growth Percent
In short: as §1

KM12 = settings: Homo sapiens, KM12 (Colon Cancer), 1.00E-5 Molar, read-out: Growth Percent
In short: as §1

LOX IMVI = settings: Homo sapiens, LOX IMVI (Melanoma), 1.00E-5 Molar, read-out: Growth Percent
In short: as §1

M14 = settings: Homo sapiens, M14 (Melanoma), 1.00E-5 Molar, read-out: Growth Percent
In short: as §1

MDA-MB-231/ATCC = settings: Homo sapiens, MDA-MB-231/ATCC (Breast Cancer), 1.00E-5 Molar, read-out: Growth Percent
In short: as §1

MOLT-4 = settings: Homo sapiens, MOLT-4 (Leukemia), 1.00E-5 Molar, read-out: Growth Percent
In short: as §1

NCI-H322M = settings: Homo sapiens, NCI-H322M (Non-Small Cell Lung Cancer), 1.00E-5 Molar, read-out: Growth Percent
In short: as §1

NCI-H460 = settings: Homo sapiens, NCI-H460 (Non-Small Cell Lung Cancer), 1.00E-5 Molar, read-out: Growth Percent
In short: as §1

NCI-H522 = settings: Homo sapiens, NCI-H522 (Non-Small Cell Lung Cancer), 1.00E-5 Molar, read-out: Growth Percent
In short: as §1

NCI/ADR-RES = settings: Homo sapiens, NCI/ADR-RES (Ovarian Cancer), 1.00E-5 Molar, read-out: Growth Percent
In short: as §1

OVCAR-3 = settings: Homo sapiens, OVCAR-3 (Ovarian Cancer), 1.00E-5 Molar, read-out: Growth Percent
In short: as §1

OVCAR-4 = settings: Homo sapiens, OVCAR-4 (Ovarian Cancer), 1.00E-5 Molar, read-out: Growth Percent
In short: as §1

PC-3 = settings: Homo sapiens, PC-3 (Prostate Cancer), 1.00E-5 Molar, read-out: Growth Percent
In short: as §1

RXF 393 = settings: Homo sapiens, RXF 393 (Renal Cancer), 1.00E-5 Molar, read-out: Growth Percent
In short: as §1

SK-MEL-2 = settings: Homo sapiens, SK-MEL-2 (Melanoma), 1.00E-5 Molar, read-out: Growth Percent
In short: as §1

SK-OV-3 = settings: Homo sapiens, SK-OV-3 (Ovarian Cancer), 1.00E-5 Molar, read-out: Growth Percent
In short: as §1

SN12C = settings: Homo sapiens, SN12C (Renal Cancer), 1.00E-5 Molar, read-out: Growth Percent
In short: as §1

SNB-75 = settings: Homo sapiens, SNB-75 (CNS Cancer), 1.00E-5 Molar, read-out: Growth Percent
In short: as §1

T-47D = settings: Homo sapiens, T47D, T-47D (Breast Cancer), 1.00E-5 Molar, read-out: Growth Percent
In short: as §1

TK-10 = settings: Homo sapiens, TK-10 (Renal Cancer), 1.00E-5 Molar, read-out: Growth Percent
In short: as §1

U251 = settings: Homo sapiens, U-251, U251 (CNS Cancer), 1.00E-5 Molar, read-out: Growth Percent
In short: as §1

UACC-62 = settings: Homo sapiens, UACC-62 (Melanoma), 1.00E-5 Molar, read-out: Growth Percent
In short: as §1

## NS(=O)(=O)c1ccc(NC(=O)C(=Cc2ccc(Cl)cc2Cl)NC(=O)c2ccccc2)cc1 [Compound 5b, N-(1-(2,4-Dichlorophenyl)-3-oxo-3-((4-sulfamoylphenyl)amino)prop-1-en-2-yl)benzamide]
786-0
  activity at 10 µM: 104%
A498
  activity at 10 µM: 95%
A549/ATCC
  activity at 10 µM: 105%
ACHN
  activity at 10 µM: 98.2%
CAKI-1
  activity at 10 µM: 88.6%
EKVX
  activity at 10 µM: 99.6%
HCT-116
  activity at 10 µM: 97.3%
HL-60(TB)
  activity at 10 µM: 84.8%
HT29
  activity at 10 µM: 103%
IGROV1
  activity at 10 µM: 74.9%
KM12
  activity at 10 µM: 102%
LOX IMVI
  activity at 10 µM: 96.2%
M14
  activity at 10 µM: 102%
MDA-MB-231/ATCC
  activity at 10 µM: 105%
MOLT-4
  activity at 10 µM: 92.3%
NCI-H322M
  activity at 10 µM: 102%
NCI-H460
  activity at 10 µM: 105%
NCI-H522
  activity at 10 µM: 80.3%
NCI/ADR-RES
  activity at 10 µM: 98.2%
OVCAR-3
  activity at 10 µM: 113%
OVCAR-4
  activity at 10 µM: 97.7%
PC-3
  activity at 10 µM: 89.4%
RXF 393
  activity at 10 µM: 96%
SK-MEL-2
  activity at 10 µM: 95.3%
SK-OV-3
  activity at 10 µM: 96.3%
SN12C
  activity at 10 µM: 94.7%
SNB-75
  activity at 10 µM: 81.4%
T-47D
  activity at 10 µM: 87.5%
TK-10
  activity at 10 µM: 104%
U251
  activity at 10 µM: 97.1%
UACC-62
  activity at 10 µM: 75%

## COc1ccc(C=C(NC(=O)c2ccccc2)C(=O)Nc2ccc(S(N)(=O)=O)cc2)cc1 [Compound 5e, N-(1-(4-Methoxyphenyl)-3-oxo-3-((4-sulfamoylphenyl)amino)prop-1-en-2-yl)benzamide]
786-0
  activity at 10 µM: 105%
A498
  activity at 10 µM: 102%
A549/ATCC
  activity at 10 µM: 103%
ACHN
  activity at 10 µM: 102%
CAKI-1
  activity at 10 µM: 98.1%
EKVX
  activity at 10 µM: 105%
HCT-116
  activity at 10 µM: 105%
HL-60(TB)
  activity at 10 µM: 99.2%
HT29
  activity at 10 µM: 100%
IGROV1
  activity at 10 µM: 94.5%
KM12
  activity at 10 µM: 106%
LOX IMVI
  activity at 10 µM: 99.1%
M14
  activity at 10 µM: 107%
MDA-MB-231/ATCC
  activity at 10 µM: 110%
MOLT-4
  activity at 10 µM: 104%
NCI-H322M
  activity at 10 µM: 110%
NCI-H460
  activity at 10 µM: 105%
NCI-H522
  activity at 10 µM: 90.5%
NCI/ADR-RES
  activity at 10 µM: 106%
OVCAR-3
  activity at 10 µM: 111%
OVCAR-4
  activity at 10 µM: 111%
PC-3
  activity at 10 µM: 98.9%
RXF 393
  activity at 10 µM: 110%
SK-MEL-2
  activity at 10 µM: 102%
SK-OV-3
  activity at 10 µM: 97.1%
SN12C
  activity at 10 µM: 97.1%
SNB-75
  activity at 10 µM: 95.5%
T-47D
  activity at 10 µM: 101%
TK-10
  activity at 10 µM: 107%
U251
  activity at 10 µM: 99.4%
UACC-62
  activity at 10 µM: 92.7%

## Cc1ccc(C=C(NC(=O)c2ccccc2)C(=O)Nc2ccc(S(N)(=O)=O)cc2)o1 [Compound 5h, N-(1-(5-Methylfuran-2-yl)-3-oxo-3-((4-sulfamoylphenyl)amino)prop-1-en-2-yl)benzamide]
786-0
  activity at 10 µM: 98.7%
A498
  activity at 10 µM: 99.8%
A549/ATCC
  activity at 10 µM: 90.6%
ACHN
  activity at 10 µM: 90.9%
CAKI-1
  activity at 10 µM: 84.4%
EKVX
  activity at 10 µM: 98%
HCT-116
  activity at 10 µM: 89.1%
HL-60(TB)
  activity at 10 µM: 94.6%
HT29
  activity at 10 µM: 86.3%
IGROV1
  activity at 10 µM: 81%
KM12
  activity at 10 µM: 98.4%
LOX IMVI
  activity at 10 µM: 94.9%
M14
  activity at 10 µM: 114%
MDA-MB-231/ATCC
  activity at 10 µM: 97.4%
MOLT-4
  activity at 10 µM: 88.9%
NCI-H322M
  activity at 10 µM: 106%
NCI-H460
  activity at 10 µM: 101%
NCI-H522
  activity at 10 µM: 85.7%
NCI/ADR-RES
  activity at 10 µM: 92.2%
OVCAR-3
  activity at 10 µM: 108%
OVCAR-4
  activity at 10 µM: 86.2%
PC-3
  activity at 10 µM: 90.9%
RXF 393
  activity at 10 µM: 95.5%
SK-MEL-2
  activity at 10 µM: 97.4%
SK-OV-3
  activity at 10 µM: 96.5%
SN12C
  activity at 10 µM: 98.6%
SNB-75
  activity at 10 µM: 81.5%
T-47D
  activity at 10 µM: 85.8%
TK-10
  activity at 10 µM: 112%
U251
  activity at 10 µM: 88.9%
UACC-62
  activity at 10 µM: 95%
